This note sets out measurements from ChEMBL document CHEMBL1148912, “New diterpenoids from the marine mangrove Bruguiera gymnorrhiza” (J Nat Prod, 2004).

In general, GI50 refers to the concentration at which growth is held to half of that of the control. Read a high GI50 as lower sensitivity of the cells. As a reminder, the CC50 is the concentration at which the toxic effect on the cells reaches its halfway point. Low values mean greater toxicity to the cells, high ones lower toxicity to the cells.

Data set [1] is described as follows: Growth inhibition of mouse L929 cells. In kind it is cell-based.
Data set [2] relates to K562. Kind of data set: Growth inhibition of human K562 cells. In kind it is functional.
For data set [3], the system named is HeLa. Briefly: Cytotoxicity against human HeLa cells. Format: functional.

≈ marks a conversion by molar mass, not a printed value.

Turning to `C[C@@]12CCC[C@@](C)(C=O)[C@H]1CC[C@]13C[C@](O)(CC[C@H]12)[C@](O)(CCl)C3`, the GI50 in data set [1] worked out at 50 µg/mL (≈ 141 µM); in data set [2], 29.2 µg/mL (≈ 82.3 µM). In addition, the 50% cytotoxic concentration (CC50) in data set [3] was determined as 38.2 µg/mL (≈ 108 µM).
On the same counts, the results for `C[C@@]12CCC[C@@](C)(C(=O)O)[C@H]1CC[C@@]13C[C@H](CO)[C@@H](CC[C@H]12)C3` are 42.4 µg/mL (≈ 132 µM), 32.8 µg/mL (≈ 102 µM) and 43 µg/mL (≈ 134 µM).
As to `C[C@@]1(CO)CCC[C@]2(C)[C@@H]1CC[C@@]13C[C@H](CO)[C@@H](CC[C@H]12)C3`, the concentration for 50% growth inhibition (GI50) in data set [1] was 12.8 µg/mL (≈ 41.8 µM); in data set [2], 13.6 µg/mL (≈ 44.4 µM). In addition, the CC50 in data set [3] was 35.7 µg/mL (≈ 116 µM).
The corresponding values for `COC(=O)[C@]1(C)CCC[C@@]2(C)[C@@H]3CC[C@H]4C[C@]3(CC[C@@H]21)C[C@]4(O)CO` are 39.5 µg/mL (≈ 113 µM), 27.7 µg/mL (≈ 79 µM) and 40.5 µg/mL (≈ 116 µM).
The corresponding values for `COC(=O)[C@]1(C)CCC[C@@]2(C)C3=CC[C@H]4C[C@]3(CC[C@H]12)C[C@]4(O)CO` are 41.9 µg/mL (≈ 120 µM), 26.7 µg/mL (≈ 76.6 µM) and 38.7 µg/mL (≈ 111 µM).
On the same counts, the results for `C[C@@]12CCC[C@@](C)(C=O)[C@H]1CC[C@@]13CC(=O)[C@](CO)(CC[C@H]12)C3` are 45.4 µg/mL (≈ 143 µM), 50 µg/mL (≈ 157 µM) and 37.7 µg/mL (≈ 118 µM).
On to `C=C1C[C@]23CC[C@@H]4[C@](C)(CO)CCC[C@@]4(C)[C@@H]2CC[C@@]1(O)C3`, for which the GI50 in data set [1] and in data set [2] was 50 µg/mL (≈ 164 µM) throughout. In data set [3], the 50% cytotoxic concentration (CC50) was 50 µg/mL (≈ 164 µM).
Take `C[C@@]12CCC[C@@](C)(C=O)[C@H]1CC[C@@]13C[C@@H](CC[C@H]12)[C@@](O)(CO)C3`: the GI50 in data set [1] and in data set [2] was 50 µg/mL (≈ 156 µM) throughout. Further, in data set [3], the midpoint of cytotoxicity, the CC50, lay at 50 µg/mL (≈ 156 µM).
For the molecule `C=C1C[C@@]23CC[C@@H]4[C@](C)(CO)CCC[C@@]4(C)[C@@H]2CC[C@H]1C3`, the GI50 in data set [1] came out at 18.2 µg/mL (≈ 63.1 µM); in data set [2] it was 6.8 µg/mL (≈ 23.6 µM). The molecule also displayed a CC50 in data set [3] of 32.8 µg/mL (≈ 114 µM).
On the same counts, the results for `C=C1C[C@]23CC[C@H]4[C@@](C)(CCC[C@@]4(C)C=O)[C@@H]2CC[C@@]1(O)C3` are 11.5 µg/mL (≈ 38 µM), 10.5 µg/mL (≈ 34.7 µM) and 42.3 µg/mL (≈ 140 µM).
For the molecule `CC(=O)O[C@H]1C(=O)[C@@]2(C)[C@H]([C@H](OC(=O)c3ccccc3)[C@]3(O)C[C@H](OC(=O)[C@H](O)[C@@H](NC(=O)c4ccccc4)c4ccccc4)C(C)=C1C3(C)C)[C@]1(OC(C)=O)CO[C@@H]1C[C@@H]2O` [PACLITAXEL], the concentration for 50% growth inhibition (GI50) is 0.1 µg/mL (≈ 0.117 µM) in data set [1] and 0.01 µg/mL (≈ 0.0117 µM) in data set [2]. The same molecule returned a CC50 in data set [3] of 0.01 µg/mL (≈ 0.0117 µM).
